Source: EP1161424B1, “NEW DIAZOLE DERIVATIVES AS SEROTONERGIC AGENTS” (Wyeth, priority 1999, dated 2000)

Experiments:
human 5HT1A receptor [1] = molecular target: T1, human 5HT1A receptor (Homo sapiens, UniProt P08908); assay: 5-HT1A receptor binding assay ([3H] 8-OH-DPAT displacement); details: displacement of [3H] 8-OH-DPAT (1.5 nM) in CHO cells stably transfected with the human 5HT1A receptor
T1 construct: expressed in transfected cells; host or cells: CHO cells, stably transfected
T1 sequence (P08908 1-422): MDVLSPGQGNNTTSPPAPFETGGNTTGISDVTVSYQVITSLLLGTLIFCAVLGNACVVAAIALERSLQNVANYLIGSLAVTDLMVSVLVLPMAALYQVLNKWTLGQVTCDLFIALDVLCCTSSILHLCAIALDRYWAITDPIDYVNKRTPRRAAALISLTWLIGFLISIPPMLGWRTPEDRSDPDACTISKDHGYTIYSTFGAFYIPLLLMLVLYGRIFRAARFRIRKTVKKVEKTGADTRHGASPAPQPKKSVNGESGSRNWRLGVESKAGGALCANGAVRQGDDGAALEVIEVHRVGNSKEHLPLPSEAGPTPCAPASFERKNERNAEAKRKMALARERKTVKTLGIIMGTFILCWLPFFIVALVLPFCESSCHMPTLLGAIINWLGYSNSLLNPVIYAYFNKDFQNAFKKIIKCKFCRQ
Method: 5-HT1A Receptor Binding Assay
High affinity for the serotonin 5-HT1A receptor was established by testing the claimed compound's ability to displace [^3H] 8-OH-DPAT binding in CHO cells stably transfected with the human 5HT1A receptor. Stably transfected CHO cells are grown in DMEM containing 10% heat inactivated FBS and non-essential amino acids. Cells are scraped off the plate, transferred to centrifuge tubes, and washed twice by centrifugation (2000 rpm for 10 min., 4°C) in buffer (50 mM Tris pH 7.5). The resulting pellets are aliquoted and placed at -80°C. On the day of assay, the cells are thawed on ice and resuspended in buffer. The binding assay is performed in a 96 well microtiter plate in a total volume of […]. Non-specific binding is determined in the presence of […] 5-HT, final ligand concentration is 1.5 nM. Following a 30 minute incubation at room temperature, the reaction is terminated by the addition of ice cold buffer and rapid filtration through a GF/B filter presoaked for 30 minutes in 0.5% PEI. Compounds are initially tested in a single point assay to determine percent inhibition at […], and Ki values are determined for the active compounds.

human 5HT1A receptor [2] = molecular target: T1, human 5HT1A receptor; assay: 5-HT1A receptor intrinsic activity assay (cAMP, RIA); format: cell-based; details: for cAMP Emax: agonist activity: reversal of forskolin-stimulated cAMP in CHO cells with human 5-HT1A receptor, % printed only; for IC50: antagonist, reversal of agonist induced activity, compounds with Emax = 0 %, preincubated 20 minutes before agonist and forskolin
Method: 5-HT1A Receptor Intrinsic Activity Assay
The intrinsic activity of compounds of the present invention was established by testing the claimed compounds ability to reverse the stimulation of cyclic adenosinemonophosphate (cAMP) in CHO cells stably transfected with the human 5-HT1A receptor. Stably transfected CHO cells were grown in DMEM containing 10% heat inactivated FBS and non-essential amino acids. The cells are plated at a density of […] per well in a 24 well plate and incubated for 2 days in a CO2 incubator. On the second day, the media is replaced with 0.5 mL treatment buffer (DMEM + 25 mM HEPES, 5 mM theophylline, […] pargyline) and incubated for 10 minutes at 37°C. Wells are treated with forskolin ([…]) followed immediately by the test compound ([…] for initial screen) and incubated for an additional 10 minutes at 37°C. The reaction is terminated by removal of the media and addition of 0.5 mL ice cold assay buffer (supplied in the RIA kit). Plates are stored at -20°C prior to assessment of cAMP formation by RIA. EC50 values are determined for the active test compounds. Compounds shown to have no agonist activities (Emax = 0 %) are further analyzed for their ability to reverse agonist induced activity. In separate experiments, 6 concentrations of antagonist are preincubated for 20 minutes prior to the addition of agonist and forskolin. Cells are harvested as described above. The cAMP kit is supplied by Amersham and the RIA is performed as per kit instructions, and calculations of IC50 performed by GraphPad Prism.

| IC50 (human 5HT1A receptor [2]) [nM] | SMILES | Ki (human 5HT1A receptor [1]) [nM] | cAMP Emax (human 5HT1A receptor [2]) [%] | EC50 (human 5HT1A receptor [2]; agonist, reversal of forskolin-stimulated cAMP in transfected CHO cells) [nM] |
| --- | --- | --- | --- | --- |
| – | COc1nsnc1N1CCN(CC(Cc2ccccc2)N(C)C(=O)c2ccccc2)CC1 (centres unmarked) [Compound 9, N-{1-Benzyl-2-[4-(4-methoxy-[1,2,5]thiadiazol-3-yl)piperazin-1-yl]ethyl]-N-methylbenzamide] | 9.87 | – | – |
| 72.7 | COc1nsnc1N1CCN(C[C@@H](Cc2ccccc2)N(C)C(=O)C2CCCCC2)CC1 [Compound 8, Cyclohexanecarboxylic acid {(1R)-1-benzyl-2-[4-(4-methoxy-[1,2,5]thiadiazol-3-yl)-piperazine-1-yl]ethyl}methyl amide] | 1.55 | 0.00 | – |
| – | O=C(N[C@@H](Cc1ccccc1)CN1CCN(c2nsnc2Cl)CC1)C1CCCCC1.O=C(O)/C=C/C(=O)O [Compound 4, Cyclohexanecarboxylic acid {(1S)-1-benzyl-2-(4-(4-chloro[1,2,5}thiadiazol-3-yl)piperazin-1-yl]ethyl}amide fumarate] | 0.84 | 93.00 | 4.61 |
| – | O=C(N[C@@H](Cc1ccccc1)CN1CCN(c2nsnc2Cl)CC1)c1ccncc1 [Compound 5] | 425 | – | – |
| 113 | COc1nsnc1N1CCN(C[C@@H](Cc2cccnc2)NC(=O)C2(C)CCCCC2)CC1 [Compound 11, 1-Methylcyclohexanecarboxylic acid {(1R)-2-[4-(4-methoxy-[1,2,5]thiadiazol-3-yl)-piperazin-1-yl]-1-pyridin-3-ylmethylethyl} amide] | 3.04 | 0.000 | – |

| SMILES | IC50 (human 5HT1A receptor [2]) [nM] | Ki (human 5HT1A receptor [1]) [nM] | cAMP Emax (human 5HT1A receptor [2]) [%] | EC50 (human 5HT1A receptor [2]; agonist, reversal of forskolin-stimulated cAMP in transfected CHO cells) [nM] |
| --- | --- | --- | --- | --- |
| CN(C(=O)C1CCCCC1)[C@H](Cc1ccccc1)CN1CCN(c2nsnc2Cl)CC1 [Compound 7] | 49.3 | 4.55 | 0.00 | – |
